Measured values: patent US8697149B2, “Extracts and compounds from “Tulbaghia violacea” and their use as biological plant protecting agents” (Agrarforum AG, priority 2005, dated 2014)
Several values for one entry are separate records, joined by “and”; a condition that tells them apart may be missing. Equal values may be shown once.

What was measured:
[1] = tested on: Fusarium oxysporum; experiment: in vitro mycelial growth inhibition, modified agar dilution method
[2] = tested on: covered kernel smut (Sporisorium sorghi); experiment: field trial, sorghum seed treatment against covered kernel smut; assay type: in vivo, Sporisorium sorghi on sorghum; settings: sorghum seed inoculated with covered kernel smut spores; extract 2.0 g/l, Thiram 0.25% (w/w); field conditions
[3] = tested on: loose kernel smut (Sporisorium cruentum); experiment: field trial, sorghum seed treatment against loose kernel smut; assay type: in vivo, Sporisorium cruentum on sorghum; settings: sorghum seed inoculated with loose kernel smut spores; extract 2.0 g/l, Thiram 0.25% (w/w); field conditions
[4] = below soil part compounds after P-TLC separation
[5] = aerial part compounds after P-TLC separation

Compound | % inhibition (mycelial growth of F. oxysporum) [1, 4] [%] | % inhibition (mycelial growth of F. oxysporum) [1, 5] | further results
CSCSSSCSC [Compound B3.2, 2,4,5,6,8-Pentathianonane] | 72 |  | 
CN(C)C(=S)SSC(=S)N(C)C [Thiram] |  |  | Yield [2]: 4.8 ± 0.6a ton ha^−1; Yield [3]: 3.9 ± 1.3a ton ha^−1
CSCSCSC [Compound A6.1, 2,4,6-Trithiaheptane] |  | 85% | 
CSCSSCSC [Compound B2.2, 2,4,5,7-Tetrathiaoctane] | 87 |  | 
Methylthiosulphonate [Compound A7.2] |  | 50% and 52% | 
2,4-Dithiapentane [Compound A7.1] |  | 87% | 
